The target in test [1] is T1, Sentrin-specific protease 7 (Homo sapiens, UniProt Q9BQF6).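 Further: Luminescence-based dose-response confirmation of ultra-high-throughput screening hits, measuring inhibition of SENP7.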
T1 sequence (Q9BQF6 whole entry): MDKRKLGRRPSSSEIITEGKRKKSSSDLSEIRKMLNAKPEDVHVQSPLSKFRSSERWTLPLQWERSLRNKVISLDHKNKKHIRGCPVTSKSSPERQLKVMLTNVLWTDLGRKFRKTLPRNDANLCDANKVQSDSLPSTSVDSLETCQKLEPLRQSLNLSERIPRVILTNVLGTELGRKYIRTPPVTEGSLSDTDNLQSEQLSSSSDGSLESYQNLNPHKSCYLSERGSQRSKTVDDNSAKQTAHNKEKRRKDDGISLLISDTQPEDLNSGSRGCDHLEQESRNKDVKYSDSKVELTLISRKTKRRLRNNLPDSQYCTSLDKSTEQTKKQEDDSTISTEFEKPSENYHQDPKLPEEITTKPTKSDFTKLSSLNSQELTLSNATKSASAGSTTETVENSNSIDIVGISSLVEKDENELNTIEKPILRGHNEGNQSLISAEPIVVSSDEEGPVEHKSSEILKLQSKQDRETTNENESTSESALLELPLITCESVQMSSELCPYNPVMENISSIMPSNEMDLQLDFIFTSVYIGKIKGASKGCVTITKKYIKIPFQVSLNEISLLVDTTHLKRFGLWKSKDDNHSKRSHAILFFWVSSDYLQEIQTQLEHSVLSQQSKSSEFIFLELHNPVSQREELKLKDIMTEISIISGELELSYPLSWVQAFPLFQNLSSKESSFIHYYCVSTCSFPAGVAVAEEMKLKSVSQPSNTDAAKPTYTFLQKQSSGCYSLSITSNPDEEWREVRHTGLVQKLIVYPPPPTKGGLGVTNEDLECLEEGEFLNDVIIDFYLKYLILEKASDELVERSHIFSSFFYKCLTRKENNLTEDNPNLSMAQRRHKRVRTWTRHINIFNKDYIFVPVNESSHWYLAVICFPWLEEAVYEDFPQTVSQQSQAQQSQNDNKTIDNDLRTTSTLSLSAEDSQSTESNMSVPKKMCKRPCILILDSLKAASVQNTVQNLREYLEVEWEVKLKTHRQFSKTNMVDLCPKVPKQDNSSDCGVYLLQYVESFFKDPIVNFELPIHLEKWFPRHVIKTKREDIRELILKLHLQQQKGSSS
The test is classed as functional.

The target of test [2] is T2, Sentrin-specific protease 6 (Homo sapiens, UniProt Q9GZR1).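 Further: Luminescence-based dose-response confirmatory assay of SENP6 inhibition, following up an ultra-high-throughput screen.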
T2 sequence (Q9GZR1 whole entry): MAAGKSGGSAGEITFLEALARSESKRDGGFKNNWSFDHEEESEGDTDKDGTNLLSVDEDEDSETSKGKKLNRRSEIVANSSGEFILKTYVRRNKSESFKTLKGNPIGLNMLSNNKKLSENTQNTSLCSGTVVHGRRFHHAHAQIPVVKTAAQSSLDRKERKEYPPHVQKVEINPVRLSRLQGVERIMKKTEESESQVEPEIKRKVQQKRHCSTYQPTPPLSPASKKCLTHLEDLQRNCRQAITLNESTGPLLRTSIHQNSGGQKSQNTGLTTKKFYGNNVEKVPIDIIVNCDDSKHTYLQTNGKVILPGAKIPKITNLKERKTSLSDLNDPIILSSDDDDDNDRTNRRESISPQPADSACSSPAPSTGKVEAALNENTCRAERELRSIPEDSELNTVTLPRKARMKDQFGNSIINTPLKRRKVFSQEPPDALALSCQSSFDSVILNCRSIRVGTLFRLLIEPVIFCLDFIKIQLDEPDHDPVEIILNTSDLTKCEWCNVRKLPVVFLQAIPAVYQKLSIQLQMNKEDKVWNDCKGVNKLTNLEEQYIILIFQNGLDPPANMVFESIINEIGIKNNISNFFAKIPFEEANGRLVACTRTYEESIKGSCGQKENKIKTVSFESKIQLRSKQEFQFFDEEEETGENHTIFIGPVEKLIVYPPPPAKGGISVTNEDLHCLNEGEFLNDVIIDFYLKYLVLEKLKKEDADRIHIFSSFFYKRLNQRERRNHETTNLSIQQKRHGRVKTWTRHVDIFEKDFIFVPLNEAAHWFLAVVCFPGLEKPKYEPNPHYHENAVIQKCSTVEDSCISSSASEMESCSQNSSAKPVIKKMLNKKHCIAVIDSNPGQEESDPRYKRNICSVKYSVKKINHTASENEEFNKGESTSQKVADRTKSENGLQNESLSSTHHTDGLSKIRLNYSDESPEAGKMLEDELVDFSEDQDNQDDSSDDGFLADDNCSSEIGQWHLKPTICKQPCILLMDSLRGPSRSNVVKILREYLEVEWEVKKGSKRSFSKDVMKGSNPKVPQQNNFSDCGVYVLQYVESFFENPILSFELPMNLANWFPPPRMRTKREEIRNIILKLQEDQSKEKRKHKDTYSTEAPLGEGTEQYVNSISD
The test is classed as functional.

Test [3] addresses T3, Caspase-3 (Homo sapiens, UniProt P42574).
T3 sequence (P42574 whole entry): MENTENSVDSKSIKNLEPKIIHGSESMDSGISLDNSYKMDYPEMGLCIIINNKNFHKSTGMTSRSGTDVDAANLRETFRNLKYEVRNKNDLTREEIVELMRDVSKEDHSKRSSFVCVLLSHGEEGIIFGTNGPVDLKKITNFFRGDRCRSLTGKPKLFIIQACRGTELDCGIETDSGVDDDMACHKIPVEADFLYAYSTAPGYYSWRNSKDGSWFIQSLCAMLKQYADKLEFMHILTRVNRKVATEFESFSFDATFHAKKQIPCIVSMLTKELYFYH
In kind it is functional.

Test [4] addresses T4, Sentrin-specific protease 8 (Homo sapiens, UniProt Q96LD8).
T4 sequence (Q96LD8 whole entry): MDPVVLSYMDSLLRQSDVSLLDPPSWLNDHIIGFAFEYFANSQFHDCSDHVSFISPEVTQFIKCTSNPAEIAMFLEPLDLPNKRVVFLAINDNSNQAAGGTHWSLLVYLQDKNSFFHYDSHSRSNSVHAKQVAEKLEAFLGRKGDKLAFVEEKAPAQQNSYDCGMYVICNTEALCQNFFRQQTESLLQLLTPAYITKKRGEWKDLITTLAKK
In kind it is functional.

Test [5] is described as follows: toxicity toward HepG2 liver cells – cell-based, plate reader, cherry-pick, antagonist series, cytotoxicity control, dose response (AID 743416). In kind it is functional.
For test [6], the target named is T5, Ubiquitin-conjugating enzyme E2 N (Homo sapiens, UniProt P61088).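 Further: Dose-response confirmation in a TR-FRET assay detecting UBC13-driven polyubiquitin chain formation, inhibition measured.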
T5 sequence (P61088 whole entry): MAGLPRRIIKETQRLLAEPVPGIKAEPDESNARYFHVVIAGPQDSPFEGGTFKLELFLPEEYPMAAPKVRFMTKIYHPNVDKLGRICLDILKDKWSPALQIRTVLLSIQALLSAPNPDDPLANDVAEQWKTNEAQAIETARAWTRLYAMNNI
In kind it is functional.

Test [7] is described as follows: microbe, parasite or virus in culture. In kind it is functional. The following applies: Mycobacterium tuberculosis.
The nature of test [8]: blockade of melanocortin 4 receptor signaling – cell-based, plate reader, cherry pick, counter-screen for LGR2 antagonist project, dose response (AID 743444).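 Further: transfected HEK 293 cells stimulated with alpha-MSH peptide; potency of inhibitors of the alpha-MSH evoked signal.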 The test is classed as functional.
A short description of test [9]: blockers of bursicon-stimulated LGR2 cAMP reporter – cell-based, HEK293, CRE-luciferase reporter, cherry pick, set 2, dose response (AID 743343).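 Further: transfected cells were stimulated with diluted bursicon conditioned medium after compound addition.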 The test is classed as functional.
Test [10] in a line: viability loss in HEK293 cells – cell-based, plate reader, cherry-picked samples, cytotoxicity control, dose response (AID 743446). In kind it is functional.
A short description of test [11]: A549 cell cytotoxicity, dose response, cytotoxicity control, plate reader, cherry-pick, antagonist series (AID 743412). The test is classed as functional, cell-based.
Test [12] relates to P388/ADR. Kind of test: cells. The test is classed as functional. To be noted: Mus musculus.
Test [13] concerns SN12K1. Kind of test: cells. To be noted: Homo sapiens. The test is classed as functional.
For test [14], the system named is P388. Kind of test: cells. In kind it is functional. To be noted: Mus musculus.
In test [15] the target is Paired box protein Pax-8 (Homo sapiens, UniProt Q06710). Kind of test: PAX8 transcriptional activity inhibition in RMG-I – RMG-I cells, luciferase, cherry-pick, dose response (AID 687027).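 Further: luciferase reporter driven by Pax8 target thyroperoxidase promoter measured by SteadyGlo luminescence.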 In kind it is functional, cell-based.
Test [16] in a line: activation of miR-122 Renilla sensor silencing – cell-based, Huh7 psiCHECK-miR122, Renilla luciferase, cherry-picked, dose response (AID 651956).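 Further: huh7 hepatoma cells stably carrying a psiCHECK-2 miR-122 sensor plasmid; renilla luciferase signal reporting endogenous miR-122 activity after 48 h compound exposure.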 The test is classed as functional.
The nature of test [17]: general mammalian cell viability loss – inhibitor set, cherry-pick, set 2, cytotoxicity control for miR-122 modulator project, dose response (AID 720697). In kind it is functional, cell-based.

Activity calls are given as the source filed them.

Sequence of Paired box protein Pax-8 (Q06710 whole entry): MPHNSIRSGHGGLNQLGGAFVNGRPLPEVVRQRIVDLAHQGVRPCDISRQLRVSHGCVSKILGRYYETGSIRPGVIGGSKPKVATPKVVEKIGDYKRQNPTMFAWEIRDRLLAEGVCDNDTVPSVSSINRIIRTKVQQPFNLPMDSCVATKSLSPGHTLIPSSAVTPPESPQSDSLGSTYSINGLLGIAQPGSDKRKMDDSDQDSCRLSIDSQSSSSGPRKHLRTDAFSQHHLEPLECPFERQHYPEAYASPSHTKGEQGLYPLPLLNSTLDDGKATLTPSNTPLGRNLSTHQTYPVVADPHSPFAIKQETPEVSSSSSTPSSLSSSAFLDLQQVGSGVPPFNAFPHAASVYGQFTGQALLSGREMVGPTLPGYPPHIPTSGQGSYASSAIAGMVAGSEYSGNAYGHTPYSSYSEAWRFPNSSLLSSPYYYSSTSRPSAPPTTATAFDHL

As for `COc1cccc(-c2nnc(-c3ccccc3[N+](=O)[O-])o2)c1`, the IC50 in [1] is 10.4 µM (active); in test [2], > 100 µM (inactive); in test [3] it was 19.1 µM (active); in test [4] it was > 100 µM (inactive).
In the case of `O=C(Nc1ccc2c(c1)CCC2)c1ccc(Br)s1`, the half-maximal inhibitory concentration (IC50) in [1] was 3.4 µM (active); in test [2], 5.03 µM (active); in [3] it was 17.5 µM (active); in test [4], 4.31 µM (active).
For `Ic1ccccc1CN[C@@H]1C2CCN(CC2)[C@@H]1C(c1ccccc1)c1ccccc1`, the AC50 in [5] was 8.05 µM (active); in test [8], 21.6 µM (active); in test [9], 18.1 µM (active); in test [10], 13.9 µM (active); in [11] it was 7.99 µM (active). Further, in test [6], the IC50 is > 20 µM (inactive). Also, in test [7], the CC50 is 12.6 µM (active).
Turning to `C=C1[C@@H](C)[C@H]2[C@H](Cc3ccccc3)NC(=O)[C@]23OC(=O)/C=C/[C@H](O)CCC[C@@H](C)C/C=C/[C@H]3[C@@H]1O`, the GI50 in test [12] was 15.3 µM (inactive); in test [13] it was 0.31 µM (active); in test [14] it was 12.4 µM (inactive).
Consider `COc1ccc(CC2C(=O)NC(C)C(=O)N(C)C3C(=O)N(C)C(Cc4ccc(O)c(c4)Oc4ccc(cc4)C3O)C(=O)NC(C)C(=O)NC(C)C(=O)N2C)cc1` (stereo not given), for which the values for the GI50 in test [12], in [13] and in test [14] were 2.26 µM (inactive), 0.00262 µM (active) and 0.00373 µM (active), respectively. Further, the AC50 in [15] was < 0.26 µM (active).
For `C=C1C(=O)O[C@H]2C1[C@H](OC(=O)/C(C)=C\COC(C)=O)C[C@]1(CO1)[C@@H]1[C@H](O)[C@H]3O[C@@]3(C)[C@@H]12` (stereo not given in full), the GI50 in test [12] is 8.13 µM (inactive); in test [13], 24.8 µM (inactive); in [14] it was 3.4 µM (inactive).
As for `C=C1C(=O)OC2/C=C(\C)CC(O)/C=C(/CO)CC(OC(=O)/C(C)=C/C)C12` (stereo not given), the GI50 in test [12] is 16.7 µM (inactive); in test [13] it was 24.8 µM (inactive); in [14], 11.1 µM (inactive).
`C[C@@H]1CN([C@@H](C)CO)C(=O)c2cc(NS(=O)(=O)c3ccc(F)cc3)ccc2O[C@@H]1CN(C)Cc1ccc(-c2ccccc2)cc1`: the half-maximal activity concentration (AC50) in [16] is 17.7 µM (active); in test [17] it was < 0.195 µM (active).
As to `Cc1ccc(/C=N/OC(=O)c2nn(C)cc2Cl)cc1`, the IC50 is 13 µM (active) in test [1], 39 µM (active) in test [2], 24 µM (active) in test [3] and 54.7 µM (active) in test [4].
As for `CNC(=O)OCc1nc([S+](C)[O-])n(C)c1COC(=O)NC` (stereo not given), the GI50 in [12], in test [13] and in test [14] was > 100 µM (inactive) in each case.
For the compound `Cc1cn([C@H]2C[C@H](N=[N+]=[N-])[C@@H](CO)O2)c(=O)[nH]c1=O` [ZIDOVUDINE], the GI50 in [12] is > 100 µM (inactive); in [13], > 100 µM (inactive); in test [14], 99.3 µM (inactive).

The record behind these values is ChEMBL document CHEMBL1201862, “PubChem BioAssay data set” (2004).
